This passage reports IC50 and Ki results from US20110166121A1 (LG LIFE SCIENCES LTD., priority 2008, published 2011).

The target in one test is T1, Human P2Y12 receptor (Homo sapiens, UniProt Q9H244).
T1 construct: expressed in transfected cells; host or cells: HEK cells
The test is described as follows: Human P2Y12 receptor cell membrane binding assay with [3H] 2-Mes-ADP. The following applies: 1 nM [3H] 2-Mes-ADP, membranes of HEK cells expressing P2Y12 receptor; read-out: Binding activity (IC50). The essentials:
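Membranes from HEK cells expressing human P2Y12 were incubated with compound and 1 nM [3H]2-MeS-ADP for 1 h at room temperature. Bound radioactivity was collected by GF/B filtration.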

The subject of test [1] is Human platelet aggregation caused by ADP. The test is described as follows: Inhibition of ADP-induced platelet aggregation (Mimic-human PRP). The test is classed as cell-based. As to conditions: 20 μM ADP, human platelet concentrate diluted with PPP, absorption at 595 nm. The essentials:
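Human PRP diluted with PPP to 3–4×10^8 platelets/mL was preincubated 20 min at room temperature with compound (0.01–30 μM, DMSO), then stimulated with 20 μM ADP. Aggregation read as A595 increase at 3 min versus 0 and 20 μM ADP controls; Ki from sigmoidal non-linear regression.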

T1 sequence (Q9H244 whole entry): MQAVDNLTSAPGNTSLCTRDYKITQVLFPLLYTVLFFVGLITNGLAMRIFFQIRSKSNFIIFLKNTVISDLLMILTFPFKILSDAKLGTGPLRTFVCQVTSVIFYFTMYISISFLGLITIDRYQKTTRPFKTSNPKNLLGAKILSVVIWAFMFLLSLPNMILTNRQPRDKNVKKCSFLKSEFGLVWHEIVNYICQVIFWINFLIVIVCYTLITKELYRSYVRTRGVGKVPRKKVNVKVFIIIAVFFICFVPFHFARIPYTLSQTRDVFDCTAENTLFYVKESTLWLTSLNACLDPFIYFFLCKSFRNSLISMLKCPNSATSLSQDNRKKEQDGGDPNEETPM

As to `CCCc1cc2c(N3CCn4c(C)nnc4C3)nc(OCC(O)CO)nc2s1` (centres unmarked) [Example 6-15, 3-[4-(3-Methyl-5,6-dihydro-8H-[1,2,4]triazolo[4,3-a]pyrazin-7-yl)-6-propyl-thieno[2,3-d]pyrimidin-2-yloxy]-propane-1,2-diol], the IC50 at Human P2Y12 receptor came to 0.4 µM. Further, the Ki in test [1] stood at 0.19 µM.

Turning to `CCCc1cc2c(N3CCn4c(C)nnc4C3)nc(OCCO)nc2s1` [Example 6-16, 2-[4-(3-Methyl-5,6-dihydro-8H-[1,2,4]triazolo[4,3-a]pyrazin-7-yl)-6-propyl-thieno[2,3-d]pyrimidin-2-yloxy]-ethanol], the IC50 at Human P2Y12 receptor stood at 0.31 µM. In test [1], the Ki is 0.061 µM.

In the case of `CCCc1cc2c(N3CCn4c(C)nnc4C3)nc(OCCCO)nc2s1` [Example 6-17, 3-[4-(3-Methyl-5,6-dihydro-8H-[1,2,4]triazolo[4,3-a]pyrazin-7-yl)-6-propyl-thieno[2,3-d]pyrimidin-2-yloxy]-propan-1-ol], the half-maximal inhibitory concentration (IC50) on Human P2Y12 receptor is 0.75 µM. This compound also gave an inhibitory constant (Ki) in test [1] of 0.4 µM.

On to `CCCc1cc2c(N3CCn4c(C)nnc4C3)nc(OCC(CO)CO)nc2s1` [Example 6-18, 2-[4-(3-Methyl-5,6-dihydro-8H-[1,2,4]triazolo[4,3-a]pyrazin-7-yl)-6-propyl-thieno[2,3-d]pyrimidin-2-yloxymethyl]-propane-1,3-diol], for which the IC50 at Human P2Y12 receptor turned out to be 0.67 µM. The compound also showed a Ki in test [1] of 0.3 µM.

A word on the IC50: it is the point on the concentration scale where inhibition reaches its midpoint. By Ki is commonly meant a measure of affinity in units of concentration, obtained from inhibition or displacement. The low end stands for higher affinity, the high end for lower affinity.
